Data on 16 compounds can be found in patent US20220073536A1 (Rigel Pharmaceuticals, Inc., priority 2003, published 2022).

Test [1] concerns cultured human mast cells (CHMC). Nature of the test: CHMC low cell density IgE activation: tryptase assay. It is filed as cell-based. To be noted: low cell density CHMC, IgE activation, tryptase release. Put shortly:
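Fluorogenic readout of tryptase released into the supernatant (30 min substrate incubation, room temperature) measures degranulation. Cells were plated at low density (1000–1500/well, varied by donor) and triggered with anti-IgE for 30 min at 37 °C.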

Test [2] has the same test system. The experiment in a line: CHMC low cell density ionomycin activation: tryptase assay. Format: cell-based. To be noted: low cell density CHMC, tryptase release, 3 pt, read-out: LD Tryptase, CHMC, Iono, 3 pt.
The mark [3] stands for this setting: Homo sapiens, Mast cell, 3 pt, read-out: LD Tryptase, CHMC, IgE, 3 pt.
The mark [4] stands for this setting: Homo sapiens, Mast cell, 8 pt, read-out: LD Tryptase, CHMC, IgE, 8 pt.
[5] abbreviates: 3 pt, read-out: LD Tryptase, CHMC, IgE, 3 pt.
Where [6] appears, read: 8 pt, read-out: LD Tryptase, CHMC, IgE, 8 pt.

Where only a bound is given, the exact number is not on record here.

Consider `O=C1Nc2cc(Nc3nc(Nc4cccc(-c5ncco5)c4)ncc3F)ccc2OC1CCO` (centres unmarked) [Compound 221], for which the IC50 in test [1] (setting [3]) is less than 10 µM; in test [1] (setting [4]), less than 10 µM; in test [2] (Homo sapiens, Mast cell), more than 10 µM.
For the compound `Fc1cnc(Nc2ccc(-c3cnco3)cc2)nc1Nc1ccc2c(c1)NCCO2` [Compound 222, N4-(3,4-Dihydro-2H,4H-Benz[1,4]oxazin-6-yl)-5-fluoro-N2-[4-(oxazol-5-yl)phenyl]-2,4-pyrimidinediamine], the values for the IC50 in test [1] (setting [5]), in test [1] (setting [6]) and in test [2] were less than 10 µM, less than 10 µM and more than 10 µM, respectively.
For `CC1(C)COc2ccc(Nc3nc(Nc4ccc(-c5cnco5)cc4)ncc3F)cc2N1` [Compound 223, N4-(3,4-Dihydro-3,3-dimethyl-2H,4H-benz[1,4]oxazin-6-yl)-5-fluoro-N2-[4-(oxazol-5-yl)phenyl]-2,4-pyrimidinediamine], the IC50 is less than 10 µM in test [1] (setting [5]), less than 10 µM in test [1] (setting [6]) and more than 10 µM in test [2].
In the case of `O=C1COc2ccc(Nc3nc(Nc4ccc(-c5cnco5)cc4)ncc3F)cc2N1` [Compound 224], the IC50 is less than 10 µM in test [1] (setting [3]); less than 10 µM in test [1] (setting [4]); more than 10 µM in test [2] (Homo sapiens, Mast cell).
As for `C[C@@H]1Oc2ccc(Nc3nc(Nc4ccc(-c5cnco5)cc4)ncc3F)cc2NC1=O` [Compound 225], the IC50 was less than 10 µM in test [1] (setting [5]), less than 10 µM in test [1] (setting [6]) and more than 10 µM in test [2].
For the compound `O=C1COc2cc(Nc3nc(Nc4ccc(-c5cnco5)cc4)ncc3F)ccc2N1` [Compound 226], the IC50 in test [1] (setting [3]) was less than 10 µM; in test [1] (setting [4]), less than 10 µM; in test [2] (Homo sapiens, Mast cell), more than 10 µM.
Turning to `O=C1Nc2cc(Nc3nc(Nc4ccc(-c5cnco5)cc4)ncc3F)ccc2OC1CCO` (centres unmarked) [Compound 227], the IC50 was less than 10 µM in test [1] (setting [3]); less than 10 µM in test [1] (setting [4]); more than 10 µM in test [2] (Homo sapiens, Mast cell).
For `CN1CCOc2ccc(Nc3nc(Nc4ccc(-c5cnco5)cc4)ncc3F)cc21` [Compound 228], the IC50 in test [1] (setting [3]) was less than 10 µM; in test [1] (setting [4]) it was less than 10 µM; in test [2] (Homo sapiens, Mast cell) it was more than 10 µM.
For the compound `CN1CCOc2cc(Nc3nc(Nc4ccc(-c5cnco5)cc4)ncc3F)ccc21` [Compound 229], the IC50 was less than 10 µM in test [1] (setting [3]); less than 10 µM in test [1] (setting [4]); more than 10 µM in test [2] (Homo sapiens, Mast cell).
As for `CN1C(=O)COc2cc(Nc3nc(Nc4ccc(-c5cnco5)cc4)ncc3F)ccc21` [Compound 230], the IC50 in test [1] (setting [3]) is more than 10 µM; in test [1] (setting [4]), more than 10 µM; in test [2] (Homo sapiens, Mast cell), more than 10 µM.
As to `CN1C(=O)COc2ccc(Nc3nc(Nc4ccc(-c5cnco5)cc4)ncc3F)cc21` [Compound 231], the IC50 in test [1] (setting [3]) is more than 10 µM; in test [1] (setting [4]) it was more than 10 µM; in test [2] (Homo sapiens, Mast cell) it was more than 10 µM.
Turning to `Fc1cnc(Nc2cccc(-c3cnco3)c2)nc1Nc1ccc2c(c1)NCCO2` [Compound 232, N4-(3,4-Dihydro-2H,4H-benz[1,4]oxazin-6-yl)-5-fluoro-N2-[3-(oxazol-5-yl)phenyl]-2,4-pyrimidinediamine], the results for the IC50 in test [1] (setting [5]), in test [1] (setting [6]) and in test [2] were less than 10 µM, less than 10 µM and more than 10 µM, respectively.
Consider `CC1(C)COc2ccc(Nc3nc(Nc4cccc(-c5cnco5)c4)ncc3F)cc2N1` [Compound 233, N4-(3,4-Dihydro-3,3-dimethyl-2H,4H-benz[1,4]oxazin-6-yl)-5-fluoro-N2-[3-(oxazol-5-yl)phenyl]-2,4-pyrimidinediamine], for which the IC50 was less than 10 µM in test [1] (setting [5]), less than 10 µM in test [1] (setting [6]) and more than 10 µM in test [2].
Consider `O=C1COc2cc(Nc3nc(Nc4cccc(-c5cnco5)c4)ncc3F)ccc2N1` [Compound 234], for which the IC50 was less than 10 µM in test [1] (setting [3]); less than 10 µM in test [1] (setting [4]); more than 10 µM in test [2] (Homo sapiens, Mast cell).
`O=C1Nc2cc(Nc3nc(Nc4cccc(-c5cnco5)c4)ncc3F)ccc2OC1CCO` (centres unmarked) [Compound 235]: the IC50 in test [1] (setting [3]) was less than 10 µM; in test [1] (setting [4]), less than 10 µM; in test [2] (Homo sapiens, Mast cell), more than 10 µM.
With `CN1CCOc2ccc(Nc3nc(Nc4cccc(-c5cnco5)c4)ncc3F)cc21` [Compound 236], the IC50 in test [1] (setting [3]) was less than 10 µM; in test [2] (Homo sapiens, Mast cell), more than 10 µM.
